The results in this text go back to US20110086759A1, “CHEMICAL COMPOUNDS” (SYNGENTA CROP PROTECTION, INC., priority 2007, published 2011).

Structures are written as SMILES.

Format in all cases: in vivo
For experiment [1], the system named is Alopecurus myosuroides (ALOMY). The experiment can be described thus: Pre-emergence biological efficacy, glasshouse pot test. To be noted: 312 h, pre-emergence, 1,000 g/ha, evaluated after 13 days (100=total damage; 0=no damage), read-out: Percentage damage ALOMY. As for the experimental part: (§1) Seeds of Alopecurus myosuroides (ALOMY), Setaria faberi (SETFA), Echinochloa crus-galli (ECHCG), Solanum nigrum (SOLNI), Amaranthus retoflexus (AMARE) and Ipomea hederaceae (IPOHE) were sown in standard soil in pots. After cultivation for one day under controlled conditions in a glasshouse (at 24/16° C., day/night; 14 hours light; 65% humidity), the plants were sprayed with an aqueous spray solution derived from the formulation of the technical active ingredient in acetone/water (50:50) solution containing 0.5% Tween 20 (polyoxyethelyene sorbitan monolaurate, CAS RN 9005-64-5) to give a final dose of 1000 or 250 g/ha of test compound.
(§2) The test plants were then grown under controlled conditions in the glasshouse (at 24/16° C., day/night; 14 hours light; 65% humidity) and watered twice daily. After 13 days the test was evaluated (100=total damage to plant; 0=no damage to plant).

Experiment [2] concerns Amaranthus retoflexus (AMARE). The experiment is described as above. To be noted: Amaranthus retroflexus, 312 h; pre-emergence, 1,000 g/ha, evaluated after 13 days (100=total damage; 0=no damage); read-out: Percentage damage AMARE. As for the experimental part: as §1, §2
Experiment [3] deals with Echinochloa crus-galli (ECHCG). Described as above. To be noted: 312 h, pre-emergence, 1,000 g/ha, evaluated after 13 days (100=total damage; 0=no damage), read-out: Percentage damage ECHCG. The method, then: as §1, §2
Experiment [4] has as its system Ipomea hederaceae (IPOHE). Described as above. The following applies: Ipomoea hederacea, 312 h; pre-emergence, 1,000 g/ha, evaluated after 13 days (100=total damage; 0=no damage); read-out: Percentage damage IPOHE. As for the experimental part: as §1, §2
Experiment [5] concerns Setaria faberi (SETFA). The experiment is described as above. The following applies: 312 h, pre-emergence, 1,000 g/ha, evaluated after 13 days (100=total damage; 0=no damage), read-out: Percentage damage SETFA. The method, then: as §1, §2
The subject of experiment [6] is Solanum nigrum (SOLNI). The description is as above. The following applies: 312 h, pre-emergence, 1,000 g/ha, evaluated after 13 days (100=total damage; 0=no damage), read-out: Percentage damage SOLNI. As for the experimental part:
as §1, §2

The test system of experiment [7] is Alopecurus myosuroides (ALOMY). The experiment can be described thus: Post-emergence biological efficacy, glasshouse pot test. To be noted: 312 h, post-emergence, 1,000 g/ha, evaluated after 13 days (100=total damage; 0=no damage), read-out: Percentage damage caused to weed species, ALOMY. As for the experimental part: as §1, with “8 days” for “one day”
(§3) The test plants were then grown on under controlled conditions in a glasshouse (at 24/16° C., day/night; 14 hours light; 65% humidity) and watered twice daily. After 13 days the test was evaluated (100=total damage to plant; 0=no damage to plant).

In experiment [8] the test system is Amaranthus retoflexus (AMARE). The experiment is described as above. The following applies: Amaranthus retroflexus, 312 h; post-emergence, 1,000 g/ha, evaluated after 13 days (100=total damage; 0=no damage); read-out: Percentage damage caused to weed species, AMARE. As for the experimental part:
as §1, with “8 days” for “one day”
as §3

Experiment [9] concerns Echinochloa crus-galli (ECHCG). The description is as above. To be noted: 312 h, post-emergence, 1,000 g/ha, evaluated after 13 days (100=total damage; 0=no damage), read-out: Percentage damage caused to weed species, ECHCG. The method, then:
as §1, with “8 days” for “one day”
as §3

Experiment [10] deals with Ipomea hederaceae (IPOHE). The experiment is described as above. To be noted: Ipomoea hederacea, 312 h; post-emergence, 1,000 g/ha, evaluated after 13 days (100=total damage; 0=no damage); read-out: Percentage damage caused to weed species, IPOHE. As for the experimental part:
as §1, with “8 days” for “one day”
as §3

Experiment [11] concerns Setaria faberi (SETFA). The experiment is described as above. The following applies: 312 h, post-emergence, 1,000 g/ha, evaluated after 13 days (100=total damage; 0=no damage), read-out: Percentage damage caused to weed species, SETFA. The method, then:
as §1, with “8 days” for “one day”
as §3

The test system of experiment [12] is Solanum nigrum (SOLNI). The experiment is described as above. To be noted: 312 h, post-emergence, 1,000 g/ha, evaluated after 13 days (100=total damage; 0=no damage), read-out: Percentage damage caused to weed species, SOLNI. The method, then:
as §1, with “8 days” for “one day”
as §3

In the case of `COC(=O)c1nc(C2CC2)nc(N[C@H](C)c2ccc3ccccc3c2)c1Cl` [4-185 (R), (R)-5-Chloro-2-cyclopropyl-6-methoxycarbonyl-4-[1-(naphtha-2-yl)ethylamino]-pyrimidine], the pest or weed control at 1000 g/ha in experiment [1] was 0%; in experiment [2], 0%; in experiment [3], 0%; in experiment [4] it was 70%; in [5], 0%; in experiment [6], 0%. The pest or weed control at 1000 g/ha in experiment [7] was 0%; in experiment [8], 80%; in experiment [9] it was 0%; in [10], 70%; in experiment [11], 0%; in experiment [12] it was 40%.

For the molecule `COC(=O)c1nc(C2CC2)nc(N[C@@H](CO)c2ccccc2)c1Cl` [4-203 (R), 5-Chloro-2-cyclopropyl-4-[(1R)-2-hydroxy-1-phenyl-ethylamino]-6-methoxycarbonyl-pyrimidine], the pest or weed control at 1000 g/ha in experiment [1] turned out to be 20%; in [2], 90%; in experiment [3], 20%; in experiment [4] it was 100%; in [5], 30%; in experiment [6], 80%. The pest or weed control at 1000 g/ha turned out to be 20% in experiment [7]; 100% in experiment [8]; 30% in experiment [9]; 50% in [10]; 40% in experiment [11]; 80% in experiment [12].

Regarding `COC(=O)c1nc(C2CC2)nc(N[C@H](CO)c2ccccc2)c1Cl` [4-203 (S), 5-Chloro-2-cyclopropyl-4-[(1S)-2-hydroxy-1-phenyl-ethylamino]-6-methoxycarbonyl-pyrimidine], the pest or weed control at 1000 g/ha was 20% in experiment [1]; 70% in experiment [2]; 20% in [3]; 80% in experiment [4]; 40% in experiment [5]; 80% in experiment [6]. Besides, the pest or weed control at 1000 g/ha in [7] came out at 30%; in [8], 100%; in [9] it was 30%; in experiment [10], 70%; in experiment [11], 50%; in experiment [12], 80%.

With `COC(=O)c1nc(C2CC2)nc(N[C@@H](C)[C@H](O)c2ccccc2)c1Cl` [4-270 (1S,2R), 5-Chloro-2-cyclopropyl-4-[(1S, 2R)-2-hydroxy-1-methyl-2-phenyl-ethylamino]-6-methoxycarbonyl-pyrimidine], the pest or weed control at 1000 g/ha came to 20% in [1]; 70% in [2]; 20% in experiment [3]; 100% in [4]; 30% in [5]; 80% in [6]. Also, the pest or weed control at 1000 g/ha in experiment [7] worked out at 40%; in experiment [8] it was 100%; in experiment [9], 30%; in experiment [10], 100%; in experiment [11], 80%; in experiment [12] it was 100%.

For the molecule `COC(=O)c1nc(C2CC2)nc(N[C@H](C)[C@@H](O)c2ccccc2)c1Cl` [4-270 (erythro), 5-Chloro-2-cyclopropyl-4-(erythro-2-hydroxy-1-methyl-2-phenyl-ethylamino)-6-methoxycarbonyl-pyrimidine], the pest or weed control at 1000 g/ha stood at 30% in experiment [1]; 80% in [2]; 30% in experiment [3]; 100% in experiment [4]; 30% in experiment [5]; 80% in [6]. For the same molecule, the pest or weed control at 1000 g/ha was 30% in experiment [7]; 100% in experiment [8]; 60% in experiment [9]; 100% in experiment [10]; 80% in [11]; 80% in experiment [12].

Turning to `COC(=O)c1nc(C2CC2)nc(N[C@@H](C)C(=O)OCc2ccccc2)c1Cl` [4-272 (S), 5-Chloro-2-cyclopropyl-6-methoxycarbonyl-4-[(1S)-1-(phenylmethoxy-carbonyl)ethylamino]-pyrimidine], the pest or weed control at 1000 g/ha in experiment [1] was 10%; in [2], 70%; in experiment [3], 30%; in experiment [4], 70%; in experiment [5], 20%; in [6] it was 80%. Also, the pest or weed control at 1000 g/ha in experiment [7] was determined as 20%; in [8], 100%; in experiment [9] it was 30%; in [10], 60%; in experiment [11], 60%; in [12], 80%.

Turning to `COC(=O)c1nc(C2CC2)nc(N[C@@H](CO)Cc2ccccc2)c1Cl` [4-273 (R), 5-Chloro-2-cyclopropyl-4-[(1R)-1-hydroxymethyl-2-phenyl-ethylamino]-6-methoxycarbonyl-pyrimidine], the pest or weed control at 1000 g/ha in experiment [1] was 50%; in experiment [2], 80%; in [3], 60%; in experiment [4] it was 100%; in experiment [5] it was 70%; in experiment [6] it was 80%. Moreover, the pest or weed control at 1000 g/ha in [7] was found to be 30%; in [8] it was 100%; in experiment [9], 60%; in experiment [10] it was 90%; in [11], 60%; in experiment [12] it was 90%.

For the molecule `COC(=O)c1nc(C2CC2)nc(N[C@H](CO)Cc2ccccc2)c1Cl` [4-273 (S), 5-Chloro-2-cyclopropyl-4-[(1S)-1-hydroxymethyl-2-phenyl-ethylamino]-6-methoxy-carbonylpyrimidine], the pest or weed control at 1000 g/ha came to 40% in experiment [1]; 100% in [2]; 60% in experiment [3]; 90% in experiment [4]; 80% in experiment [5]; 90% in experiment [6]. The pest or weed control at 1000 g/ha in experiment [7] was found to be 50%; in experiment [8], 100%; in experiment [9] it was 60%; in experiment [10] it was 90%; in experiment [11], 70%; in experiment [12], 100%.
